Test results as given in ChEMBL document CHEMBL1201862, “PubChem BioAssay data set” (2004).
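Five concentrations, 48 hours, 96-well plates. At the GI50, growth is halved.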 Active and inactive are the calls of the source. Cut-off read from the data, not from the text of the source: active = GI50 up to about 1.1 µM and inactive = higher.

Tests used:
Test in all cases: NCI anticancer screen, dose series, 48 h
[1] = test system: NCI-H23
[2] = test system: SW-620
[3] = test system: SK-MEL-2
[4] = test system: RXF 393
[5] = test system: MOLT-4
[6] = test system: A549
[7] = test system: SNB-19
[8] = test system: K562
[9] = test system: SF-539
[10] = test system: ACHN
[11] = test system: UACC-62
[12] = test system: LOX IMVI
[13] = test system: M14
[14] = test system: CAKI-1
[15] = test system: COLO 205
[16] = test system: Hs-578T
[17] = test system: SN12C
[18] = test system: PC-3
[19] = test system: SK-OV-3
[20] = test system: HOP-62
[21] = test system: BT-549
[22] = test system: 786-0
[23] = test system: NCI-H522
[24] = test system: OVCAR-3
[25] = test system: HCC 2998
[26] = test system: MDA-MB-231
[27] = test system: HCT-15
[28] = test system: DU-145
[29] = test system: HOP-92
[30] = test system: T47D
[31] = test system: HL-60
[32] = test system: KM12
[33] = test system: SR
[34] = test system: SF-268
[35] = test system: A498
[36] = test system: MDA-N
[37] = test system: HT-29
[38] = test system: SK-MEL-5
[39] = test system: U-251
[40] = test system: OVCAR-5
[41] = test system: IGROV-1
[42] = test system: SF-295
[43] = test system: SNB-75
[44] = test system: NCI-H226
[45] = test system: UO-31
[46] = test system: OVCAR-8
[47] = test system: HCT-116
[48] = test system: MDA-MB-435
[49] = test system: EKVX
[50] = test system: NCI-H460
[51] = test system: RPMI-8226
[52] = test system: CCRF-CEM
[53] = test system: Malme-3M
[54] = test system: SK-MEL-28
[55] = test system: UACC-257
[56] = test system: MCF7
[57] = test system: TK-10

Measured: GI50

COc1ccc(NC2Oc3cc4c(cc3C(c3cccc(OC)c3OC)C2C)OCO4)cc1 (configuration not stated)
2.96 µM: [27]
inactive: [1] 11.9 µM | [2] 5.83 µM | [3] 5.3 µM | [4] 3.72 µM | [5] 2.9 µM | [6] 5.53 µM | [7] 53.3 µM | [8] 4.21 µM | [9] 17.7 µM | [10] 4.59 µM | [11] 14.9 µM | [12] 11.4 µM | [13] 6.04 µM | [14] 3.72 µM | [15] 6.14 µM | [16] 7.96 µM | [17] 6.19 µM | [18] 3.62 µM | [19] 70 µM | [20] 32.9 µM | [21] 13.5 µM | [22] 7.96 µM | [23] 6.24 µM | [24] 5.35 µM | [25] 43.5 µM | [26] 16.7 µM | [28] 4.16 µM | [29] 3.32 µM | [30] 5.08 µM | [31] 3.22 µM | [32] 6.68 µM | [33] 2.04 µM | [34] 10.1 µM | [35] 10.9 µM | [36] 7.89 µM | [37] 6.85 µM | [38] 13.6 µM | [39] 4.01 µM | [40] 19.2 µM | [41] 8.75 µM | [42] 3.73 µM | [43] 5.06 µM | [44] 6.82 µM | [45] 5.85 µM | [46] 5.13 µM | [47] 3.83 µM | [48] 10 µM | [49] 18.5 µM | [50] 5.86 µM | [51] 11.4 µM | [52] 3.61 µM | [53] 15.4 µM | [54] 16.3 µM | [55] 4.46 µM | [56] 8.81 µM | [57] 6.4 µM
